Reference: PubChem BioAssay AID1963446 (Molecular Pharmacology Branch, DTP, NCI, 2024)

System: 993429-296-R-J1-PDC complex spheroid growth, percent test/control
Assay: Anticancer human tumor 993429-296-R-J1-PDC patient-derived uterine sarcoma cell line growth inhibition [Asc]
Settings: for IC50: curve of first compound; for viability, T/C: stronger effect = lower value; active = viability on the fitted dose curve at most 10% of control; inactive = the rest
Outline: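 Spheroid model: tumor line + HUVEC + hMSC. Single agents and combinations; top conc. at/near clinical Cmax (10 microM if undetermined), half-log dilutions. DMSO stocks at 800-fold test concentration.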
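Note: spheroids exposed to compounds for seven days.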

C=CC(=O)N1CCN(c2nc(=O)n(-c3c(C)ccnc3C(C)C)c3nc(-c4c(O)cccc4F)c(F)cc23)C(C)C1 (stereo not given) + Cc1c(S(C)(=O)=O)c(-c2cc(F)cc(N3CCN(c4ccc(NS(=O)(=O)c5ccc(NC(CCN6CCC(C(=O)OCCCP(=O)(O)O)CC6)CSc6ccccc6)c(S(=O)(=O)C(F)(F)F)c5)cc4)CC3)c2)c(-c2ccc(Cl)cc2)n1C(C)C
inactive: viability, T/C (second compound 0.1 µM, first compound 0.0316 µM) 83.5% | viability, T/C (second compound 0.1 µM, first compound 0.1 µM) 81.1% | viability, T/C (second compound 0.1 µM, first compound 0.316 µM) 91.9% | viability, T/C (second compound 0.1 µM, first compound 1 µM) 75.1% | viability, T/C (second compound 0.1 µM, first compound 3.16 µM) 76.5% | viability, T/C (second compound 0.1 µM, first compound 10 µM) 54.6% | viability, T/C (second compound 0.316 µM, first compound 0.0316 µM) 79% | viability, T/C (second compound 0.316 µM, first compound 0.1 µM) 80.6% | viability, T/C (second compound 0.316 µM, first compound 0.316 µM) 69.2% | viability, T/C (second compound 0.316 µM, first compound 1 µM) 75% | viability, T/C (second compound 0.316 µM, first compound 3.16 µM) 62.3% | viability, T/C (second compound 0.316 µM, first compound 10 µM) 30.5% | viability, T/C (second compound 1 µM, first compound 0.0316 µM) 62.9% | viability, T/C (second compound 1 µM, first compound 0.1 µM) 53.5% | viability, T/C (second compound 1 µM, first compound 0.316 µM) 76.8% | viability, T/C (second compound 1 µM, first compound 1 µM) 62.1% | viability, T/C (second compound 1 µM, first compound 3.16 µM) 47.3% | viability, T/C (second compound 1 µM, first compound 10 µM) 41.8% | viability, T/C (second compound 3.16 µM, first compound 0.0316 µM) 51.1% | viability, T/C (second compound 3.16 µM, first compound 0.1 µM) 59.9% | viability, T/C (second compound 3.16 µM, first compound 0.316 µM) 54.4% | viability, T/C (second compound 3.16 µM, first compound 1 µM) 43.8% | viability, T/C (second compound 3.16 µM, first compound 3.16 µM) 34.9% | viability, T/C (second compound 3.16 µM, first compound 10 µM) 45.9% | viability, T/C (second compound 10 µM, first compound 0.0316 µM) 106% | viability, T/C (second compound 10 µM, first compound 0.1 µM) 81% | viability, T/C (second compound 10 µM, first compound 0.316 µM) 86.6% | viability, T/C (second compound 10 µM, first compound 1 µM) 86.1% | viability, T/C (second compound 10 µM, first compound 3.16 µM) 64.7% | viability, T/C (second compound 10 µM, first compound 10 µM) 34.9%
4.92 µM: IC50 (second compound 0.316 µM)
0.524 µM: IC50 (second compound 3.16 µM)
5.69 µM: IC50 (second compound 10 µM)
4.34 µM: IC50 (second compound 1 µM)
> 10 µM: IC50 (second compound 0.1 µM)

CCN1C(C(=O)NC23CCC(C(=O)O)(CC2)CC3)C(c2cccc(Cl)c2F)C2(C(=O)Nc3cc(Cl)ccc32)C12CCCCC2 (stereo not given) + Cc1c(S(C)(=O)=O)c(-c2cc(F)cc(N3CCN(c4ccc(NS(=O)(=O)c5ccc(NC(CCN6CCC(C(=O)OCCCP(=O)(O)O)CC6)CSc6ccccc6)c(S(=O)(=O)C(F)(F)F)c5)cc4)CC3)c2)c(-c2ccc(Cl)cc2)n1C(C)C
0.951 µM: IC50 (second compound 1 µM)
> 3 µM: IC50 (second compound 0.1 µM) | IC50 (second compound 10 µM)
< 0.00949 µM: IC50 (second compound 3.16 µM)
inactive: viability, T/C (second compound 0.1 µM, first compound 0.00949 µM) 88.1% | viability, T/C (second compound 0.1 µM, first compound 0.03 µM) 76.6% | viability, T/C (second compound 0.1 µM, first compound 0.0949 µM) 94.8% | viability, T/C (second compound 0.1 µM, first compound 0.3 µM) 66.4% | viability, T/C (second compound 0.1 µM, first compound 0.949 µM) 62.8% | viability, T/C (second compound 0.1 µM, first compound 3 µM) 58.5% | viability, T/C (second compound 0.316 µM, first compound 0.00949 µM) 63.1% | viability, T/C (second compound 0.316 µM, first compound 0.03 µM) 68.6% | viability, T/C (second compound 0.316 µM, first compound 0.0949 µM) 68.4% | viability, T/C (second compound 0.316 µM, first compound 0.3 µM) 55.5% | viability, T/C (second compound 0.316 µM, first compound 0.949 µM) 54.8% | viability, T/C (second compound 0.316 µM, first compound 3 µM) 39.9% | viability, T/C (second compound 1 µM, first compound 0.00949 µM) 57.6% | viability, T/C (second compound 1 µM, first compound 0.03 µM) 50.8% | viability, T/C (second compound 1 µM, first compound 0.0949 µM) 50.7% | viability, T/C (second compound 1 µM, first compound 0.3 µM) 61.4% | viability, T/C (second compound 1 µM, first compound 0.949 µM) 48% | viability, T/C (second compound 1 µM, first compound 3 µM) 28.4% | viability, T/C (second compound 3.16 µM, first compound 0.00949 µM) 47.1% | viability, T/C (second compound 3.16 µM, first compound 0.03 µM) 51.9% | viability, T/C (second compound 3.16 µM, first compound 0.0949 µM) 43.1% | viability, T/C (second compound 3.16 µM, first compound 0.3 µM) 44.4% | viability, T/C (second compound 3.16 µM, first compound 0.949 µM) 30.8% | viability, T/C (second compound 3.16 µM, first compound 3 µM) 22.3% | viability, T/C (second compound 10 µM, first compound 0.00949 µM) 81.3% | viability, T/C (second compound 10 µM, first compound 0.03 µM) 91.9% | viability, T/C (second compound 10 µM, first compound 0.0949 µM) 62.4% | viability, T/C (second compound 10 µM, first compound 0.3 µM) 67.7% | viability, T/C (second compound 10 µM, first compound 0.949 µM) 78.2% | viability, T/C (second compound 10 µM, first compound 3 µM) 51.1%
1.27 µM: IC50 (second compound 0.316 µM)
